Reference: patent US8410138B2, “Compounds for activating TGF-beta signaling” (The Board of Trustees of the Leland Stanford Junior …, priority 2007, dated 2013)
Like-named read-outs stand apart in the source and are kept apart here.

Experiments:
[1] = tested on: TGF-β signaling (SBE-SEAP reporter) in MFB-F11 cells; assay type: cell-based, mouse; conditions: for Relative TGF-β activity, fold change compared with vehicle: cell reporter assay
Experimental: All compounds were tested twice, in duplicate, using the MFB-F11 cell line. 80 compounds were selected for further study based on induction of the reporter gene in any of the replicates. These compounds were tested again in MFB-F11 or C6-H4 cells, either alone or in the presence of 100 pg/ml of TGF-β1, to test for synergistic activities.

[2] = tested on: fibroblasts lacking Smad2, Smad3 or Smad4; assay: SBE reporter signaling in fibroblasts lacking elements of the TGF-β signaling pathway; assay type: cell-based; conditions: Smad4-lacking fibroblasts; FIG. 2D
Description: To understand how the TGF-β signaling agonists function and identify molecular genetic targets in cells, fibroblasts lacking different elements of the TGF-β3 signaling pathway, including Smad2, Smad3, and Smad4, were used in combination with plasmids encoding different inhibitors of the TGF-β signaling pathway to study TGF-β agonists in different backgrounds. For reference, the canonical TGF-β signaling pathway is illustrated in FIG. 2A. The biological actions of TGF-β1 are mediated through interactions with the type 2 TGF beta receptor (TBR2) 2 and the type I TGF beta receptor (TBRI) 3. Betaglycan 4 may participate in the binding of TGF-β1. Receptor activation leads to the phosphorylation of Smad proteins, such as Smad 2/3 5 and Smad 4 6, which translocate to the nucleus 7 to bind to the Smad DNA-binding element (SBE) 8, present in numerous genes, in combination with transcription factors (TF) 9. Smad 7 10 is inhibitory with respect to Smad 2/3 5 phosphorylation. Alternative signaling involves p38 11 and the MAP kinase pathway. TAB1 12 activates TAK1 13, which activates p38 11.
Because Smad2 and Smad3 can substitute for each other, results with Smad2 or Smad3 knock-out fibroblasts were more difficult to interpret. Nonetheless, the synergistic effect of TGF-β1 and 11H was blocked in the absence of Smad2 (FIG. 2B) or Smad3 (not shown). In these assays, signaling is reported via SBE elements, which are specific elements that bind Smad proteins. Thus, the 11H compound must signal through this element. Without being limited to theory, it is believed that the 3A compound functions as a competitive agonist of Smad binding to the SBE, representing a novel target and mode of action.

Compound | Relative TGF-β activity, fold change compared with vehicle ([1]; 3 μM) [fold] | Relative TGF-β activity, fold change compared with vehicle ([1]; 10 μM) [fold] | Relative TGF-β activity, fold change compared with vehicle ([1]; 30 μM) [fold] | Relative TGF-β activity, fold change compared with vehicle ([1]; 100 μM) [fold] | TGF-β agonist activity ([1]; data of FIGS. 1A-1J) | Signaling in the absence of Smad4 [2]
COCCN(CC(=O)N(CCc1c[nH]c2ccccc12)Cc1ccccc1)C(=O)Cc1cccs1 [Compound 3A, N-(2-(1H-indol-3-yl)ethyl)-N-benzyl-2-(N-(2-methoxyethyl)-2-(thiophen-2-yl)acetamido)acetamide] | 1.7 | 2.9 | 5.2 | 11.4 | TGF-β-agonists | not affected (or was even stronger)
CC(C)N(CC(=O)N(CCc1c[nH]c2ccccc12)Cc1ccc(Cl)c(Cl)c1)C(=O)CC(C)(C)C [Compound 37C02] | 0.7 | 1.0 | 1.4 | 3.1 |  | 
CC(C)(CCl)C(=O)N(CC(=O)N(CCc1c[nH]c2ccccc12)Cc1ccccc1)C1CC1 [Compound 44A04] | 1.2 | 2.3 | 2.7 | 2.8 |  | 
